Results as given in US10781224B2, “Bis(oxymethyl)phosphinic acid and biogenic metal salts thereof as regulators of plant growth and development” (priority 2016, dated 2020).

System: rice (Diamant variety)
Experiment: Rice seed treatment with BHMPA salts: germinating power
Format: in vivo
Procedure: Experimental versions—soaking seeds in BHMPA solutions and solutions of BHMPA Ca, Mg, Na, Co, Mn, Cu, and Zn salts at 1·10^−6-1·10^−12% concentrations (doses). The studies were conducted in laboratory in Petri dishes; seed bed—two layers of filter paper. 50 seeds soaked in water (control) and in the solutions of the tested compounds (experimental) were placed into each dish. Wheat, corn, and rice seeds were exposed for one hour.
Seed germination energy and rate were calculated in percent as an arithmetic mean of the four experimental results (germination energy on the 4th day, wheat germination on the 8th day, rice and corn germination—on the 7th day). Germination was determined based on the germinating power indicators (length of the roots and sprouts and their wet and dry mass per 100 shoots).
The effect of pre-sowing seed treatment with the claimed BHMPA salts of biogenic metals was studied on winter wheat (Vershin variety), corn (Krasnodar 385 MV variety), and rice (Diamant variety).
The above data describe the seed viability only at the initial stage of germination, while the germination ability at the later stage of germination is defined by the initial germinating power. The method for the determination of the germinating power comprises measuring the height of the sprouts and primary roots, as well as the biomass and the dry mass thereof per 100 seedlings. [M. A. Kartuzova. Initial Germinating Power as Method of Biological Assessment of Seed Quality. Selection and Seed Farming, #2, 1953].

[1] = rice seed treatment, comparison with Melaphen (Table XXXIII), solution 1 · 10^−9%
[2] = rice seeds, solution concentration 1 · 10^−6%
[3] = rice seeds, solution concentration 1 · 10^−7%
[4] = rice seeds, solution concentration 1 · 10^−8%
[5] = rice seeds, solution concentration 1 · 10^−9%
[6] = rice seeds, solution concentration 1 · 10^−10%

## O=P([O-])(CO)CO.O=P([O-])(CO)CO.[Ca+2] [Ca-salt, Calcium BHMPA Salt]
rice
  optimum concentration for treating rice seeds before sowing: 1·10^−9%
[1]
  Length, root: 6.2 cm
  Length, root, + % to control: 29%
  Length, sprout: 3.5 cm
  Length, sprout, + % to control: 35%
  Mass, dry, root: 0.23 g/100 plantlings
  Mass, dry, root, + % to control: 9.5%
  Mass, dry, sprout: 0.27 g/100 plantlings
  Mass, dry, sprout, + % to control: 8%
  Mass, wet, root: 1.33 g/100 plantlings
  Mass, wet, root, + % to control: 36%
  Mass, wet, sprout: 2.24 g/100 plantlings
  Mass, wet, sprout, + % to control: 48%
[2]
  Length, root: 5.7 cm
  Length, root, + % to control: 10%
  Length, sprout: 2.8 cm
  Length, sprout, + % to control: 12%
  Mass, dry, root: 0.19 g/100 plantlings
  Mass, dry, root, + % to control: 12%
  Mass, dry, sprout: 0.23 g/100 plantlings
  Mass, dry, sprout, + % to control: 9.5%
  Mass, wet, root: 1.10 g/100 plantlings
  Mass, wet, root, + % to control: 14.5%
  Mass, wet, sprout: 1.92 g/100 plantlings
  Mass, wet, sprout, + % to control: 9%
[3]
  Length, root: 5.9 cm
  Length, root, + % to control: 13%
  Length, sprout: 3.0 cm
  Length, sprout, + % to control: 20%
  Mass, dry, root: 0.24 g/100 plantlings
  Mass, dry, root, + % to control: 41%
  Mass, dry, sprout: 0.26 g/100 plantlings
  Mass, dry, sprout, + % to control: 24%
  Mass, wet, root: 1.21 g/100 plantlings
  Mass, wet, root, + % to control: 26%
  Mass, wet, sprout: 2.16 g/100 plantlings
  Mass, wet, sprout, + % to control: 23%
[4]
  Length, root: 6.3 cm
  Length, root, + % to control: 21%
  Length, sprout: 3.1 cm
  Length, sprout, + % to control: 24%
  Mass, dry, root: 0.27 g/100 plantlings
  Mass, dry, root, + % to control: 59%
  Mass, dry, sprout: 0.28 g/100 plantlings
  Mass, dry, sprout, + % to control: 33%
  Mass, wet, root: 1.24 g/100 plantlings
  Mass, wet, root, + % to control: 29%
  Mass, wet, sprout: 2.25 g/100 plantlings
  Mass, wet, sprout, + % to control: 28%
[5]
  Length, root: 6.6 cm
  Length, root, + % to control: 27%
  Length, sprout: 3.2 cm
  Length, sprout, + % to control: 28%
  Mass, dry, root: 0.30 g/100 plantlings
  Mass, dry, root, + % to control: 76%
  Mass, dry, sprout: 0.32 g/100 plantlings
  Mass, dry, sprout, + % to control: 52%
  Mass, wet, root: 1.29 g/100 plantlings
  Mass, wet, root, + % to control: 34%
  Mass, wet, sprout: 2.36 g/100 plantlings
  Mass, wet, sprout, + % to control: 34%
[6]
  Length, root: 6.4 cm
  Length, root, + % to control: 23%
  Length, sprout: 3.0 cm
  Length, sprout, + % to control: 20%
  Mass, dry, root: 0.28 g/100 plantlings
  Mass, dry, root, + % to control: 65%
  Mass, dry, sprout: 0.29 g/100 plantlings
